Experimental data reported in patent publication US8153635B2, “Compounds and compositions as modulators of GPR119 activity” (IRM LLC, priority 2007, dated 2012).

Target: T1, human GPR119 (Homo sapiens, UniProt Q8TDV5)
T1 construct: expressed in transfected cells; host or cells: Flp-In-CHO cells (Invitrogen, Cat.# R758-07), stably transfected with hGPR119 in pcDNA5/FRT plus pOG44
T1 sequence (Q8TDV5 1-335): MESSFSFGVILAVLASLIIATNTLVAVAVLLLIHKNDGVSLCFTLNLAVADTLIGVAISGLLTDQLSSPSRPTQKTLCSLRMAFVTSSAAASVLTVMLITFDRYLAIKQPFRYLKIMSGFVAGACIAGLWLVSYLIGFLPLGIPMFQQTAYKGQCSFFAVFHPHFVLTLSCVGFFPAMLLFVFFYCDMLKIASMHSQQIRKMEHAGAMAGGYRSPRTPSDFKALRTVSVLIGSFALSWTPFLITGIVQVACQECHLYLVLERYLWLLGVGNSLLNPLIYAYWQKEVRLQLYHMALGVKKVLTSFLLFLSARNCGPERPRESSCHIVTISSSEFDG
Assay: Cyclic AMP assay in CHO-hGPR119 cells (HTRF)
Format: cell-based
Conditions: increase in intracellular cAMP; GPR119-transfected CHO cells
Experimental: Flp-In-CHO cells (Invitrogen, Cat.# R758-07) are maintained in Ham's F12 medium supplemented with 10% fetal bovine serum, 1% antibiotic mixture and 2 mM L-glutamine. The cells are transfected with a DNA mixture containing human GPR119 (hGPR119) or mouse GPR119 (mGPR119) in the pcDNA5/FRT vector (Invitrogen) and the pOG44 vector (Invitrogen) in a 1:9 ratio using Fugene6 (Roche), according to the manufacturer's instructions. After 48 hours, the medium is changed to medium supplemented with 400 μg/mL hygromycin B to initiate the selection of stably transfected cells. The resultant cell lines are designated CHO-hGPR119 and CHO-mGPR119 respectively.
To test the activity of compounds of the invention on human GPR119, CHO-hGPR119 cells are harvested and resuspended at 300,000 cells/mL in assay media (Ham's F12 medium plus 3% lipid-depleted fetal bovine serum, 1 mM 3-isobutyl-1-methyl-xanthine (IBMX)). Cells (5 μl) are placed in each well of a white 1536-well plate. A compound of the invention (50 nL) diluted in 100% dimethyl sulfoxide (DMSO) is added to each well and the plates are incubated at 37° C. for 30 minutes. cAMP concentrations are then measured using the cAMP dynamic 2 kit (Cisbio Bioassays) according to the manufacturer's instructions. 2.5 μL of diluted cAMP-XL665 is added to each well, followed by 2.5 μL diluted anti-cAMP-Cryptate. The plate is covered and incubated for one hour at room temperature, then read on an Envision plate reader (Perkin Elmer) using the HTRF method with excitation at 337 nm, and emissions measured at 620 nm and […].

Row | Compound | EC50 [nM]
1 | CC1(OC(=O)N2CCC(COc3cnc(N4CCC(S(C)(=O)=O)CC4)cn3)CC2)CC1 [Example G4, 1-Methylcyclopropyl 4-((5-(4-(methylsulfonyl)piperidin-1-yl)pyrazin-2-yloxy)methyl)piperidine-1-carboxylate] | < 200
2 | CS(=O)(=O)N1CCC(c2ccc(OCC3CCN(c4ccc(Cl)cn4)CC3)cc2)CC1 [Example J22] | < 200
3 | CC1(OC(=O)N2CCC(COc3cnc(N4CCN(S(=O)(=O)CCCN5CCC5)CC4=O)cn3)CC2)CC1 [Example O9] | < 200
4 | CC1(OC(=O)N2CCC(COc3cnc(N4CCN(S(=O)(=O)[C@@H]5CCNC5)CC4=O)cn3)CC2)CC1 [Example O41] | < 200
5 | CS(=O)(=O)N1CCC(C(=O)O)(c2ccc(OCC3CCN(c4ncc(F)cn4)CC3)cc2)CC1 [Example T1, 4-(4-((1-(5-fluoropyrimidin-2-yl)piperidin-4-yl)methoxy)phenyl)-1-(methylsulfonyl)piperidine-4-carboxylic acid] | 200 to 800
6 | CC1(OC(=O)N2CCC(COc3cnc(N4CC(NS(C)(=O)=O)C4)cn3)CC2)CC1 [Example U5, 1-Methylcyclopropyl 4-((5-(3-(methylsulfonamido)azetidin-1-yl)pyrazin-2-yloxy)methyl)piperidine-1-carboxylate] | < 200
7 | CCc1cnc(N2CCC(Oc3ccc4c5c(oc4c3)CN(S(C)(=O)=O)CC5)CC2)nc1 [Example V5, 7-(1-(5-Ethylpyrimidin-2-yl)piperidin-4-yloxy)-2-(methylsulfonyl)-1,2,3,4-tetrahydrobenzofuro[2,3-c]pyridine] | < 200

Next, values leading:

Row | EC50 [nM] | Compound
8 | > 800 | CC(C)OC(=O)N1CCC(CCCOc2ccc(N3CCN(S(C)(=O)=O)CC3)cc2)CC1 [Example A3]
9 | > 800 | CC(C)OC(=O)N1CCC(COc2ccc(N3CCN(S(C)(=O)=O)CC3)nn2)CC1 [Example C2, Isopropyl 4-((6-(4-(methylsulfonyl)piperazin-1-yl)pyridazin-3-yloxy)methyl)piperidine-1-carboxylate]
10 | 200 to 800 | CC(C)OC(=O)N1CCC(CCc2ccc(N3CCN(S(C)(=O)=O)CC3)nc2)CC1 [Example D2, Isopropyl 4-(2-(6-(4-(methylsulfonyl)piperazin-1-yl)pyridin-3-yl)ethyl)piperidine-1-carboxylate]
11 | < 200 | CC1(OC(=O)N2CCC(COc3cnc(N4CCN(S(C)(=O)=O)CC4)cn3)CC2)CC1 [Example E3, 1-Methylcyclopropyl 4-((5-(4-(methylsulfonyl)piperazin-1-yl)pyrazin-2-yloxy)methyl)piperidine-1-carboxylate]
12 | 200 to 800 | CC(C)c1noc(N2CCC(COc3ccc(N4CCN(S(C)(=O)=O)CC4)cn3)CC2)n1 [Example E9, 3-Isopropyl-5-(4-((5-(4-(methylsulfonyl)piperazin-1-yl)pyridin-2-yloxy)methyl)piperidin-1-yl)-1,2,4-oxadiazole]
13 | > 800 | CC(C)(C)OC(=O)N1CCC(COc2cnc(N3CCCN(S(C)(=O)=O)CC3)cn2)CC1 [Example G1, tert-Butyl 4-((5-(4-(methylsulfonyl)-1,4-diazepan-1-yl)pyrazin-2-yloxy)methyl)piperidine-1-carboxylate]
14 | < 200 | CCc1cnc(N2CCC(CCCc3nc(N4CCN(S(C)(=O)=O)CC4)no3)CC2)nc1 [Example H3, 5-(3-(1-(5-Ethylpyrimidin-2-yl)piperidin-4-yl)propyl)-3-(4-(methylsulfonyl)piperazin-1-yl)-1,2,4-oxadiazole]
15 | < 200 | CC(C)c1noc(N2CCC(CCc3ncc(N4CCN(S(C)(=O)=O)CC4)s3)CC2)n1 [Example I1, 3-Isopropyl-5-(4-(2-(5-(4-(methylsulfonyl)piperazin-1-yl)thiazol-2-yl)ethyl)piperidin-1-yl)-1,2,4-oxadiazole]
16 | < 200 | CC(C)c1nc(N2CCC(COc3ccc(C4=CCN(S(C)(=O)=O)CC4)cc3)CC2)no1 [Example J7]
